Source: ChEMBL document CHEMBL4354784, “On the road to structure-based development of anti-virulence therapeutics targeting the type III secretion system injectisome” (Medchemcomm, 2019)

How the values were obtained:
Salmonella enterica = test: Antimicrobial activity against Salmonella enterica infected in mouse assessed as increasing survival rate on day 9 relative to control; type: functional
Pseudomonas aeruginosa [1] = test: Antimicrobial activity against Pseudomonas aeruginosa; type: functional, organism-based
Pseudomonas aeruginosa [2] = test: Antimicrobial activity against Pseudomonas aeruginosa infected in mouse assessed as increasing survival rate after 6 days (RVB = 20%); type: functional
[3] = Inhibition of Pseudomonas aeruginosa MDM1912 T3SS assessed as reduction in ExoS-BLA fusion protein secretion by measuring hydrolysis of the chromogenic beta-lactamase substrate nitrocefin by colorimetric method
[4] = test system: Yersinia pseudotuberculosis; test: Inhibition of Yersinia pseudotuberculosis serotype 3 T3SS assessed as reduction in YopD protein secretion at > 13 uM preincubated for 1 hr at 26 degC and subsequently incubated for 3 hrs at 37 degC by Western blot analysis relative to control
[5] = test system: Yersinia pseudotuberculosis; test: Inhibition of Yersinia pseudotuberculosis serotype 3 T3SS assessed as reduction in YopD protein expression at > 13 uM preincubated for 1 hr at 26 degC and subsequently incubated for 3 hrs at 37 degC by Western blot analysis relative to control
[6] = Inhibition of Yersinia pseudotuberculosis serotype 3 T3SS assessed as reduction in YopH protein secretion using p-nitro phenyl phosphat/2-(N-morpholino)ethanesulfonic acid as substrate preincubated for 1 hr at 26 degC and subsequently incubated for 2 hrs at 37 degC followed by addition of substrate and measured after 15 mins

## Cc1ccc(C(C)C)c(O)c1 [THYMOL]
Salmonella enterica
  Survival: 70%

## NCCCNCCCCNCCCNC(=O)c1ccccc1C1=c2cc3c4c(c2Oc2c1cc1c5c2CCCN5CCC1)CCC[N+]=4CCC3
Pseudomonas aeruginosa [1]
  EC50: 10 µM
  MIC50: > 10 µM
Pseudomonas aeruginosa [2]
  Survival: 100%

## O=C(N/N=C/c1cc(Br)cc(Br)c1O)c1ccc([N+](=O)[O-])cc1
[3]
  IC50: 0.8 µM

## Oc1ccc([C@@H]2c3c(O)cc(O)cc3[C@@H]3c4c(cc(O)cc4[C@H]2[C@@H]2c4cc(O)cc5c4[C@@H](c4cc(O)cc(O)c4[C@H]2c2ccc(O)cc2)[C@H](c2ccc(O)cc2)O5)O[C@H]3c2ccc(O)cc2)cc1
[4]
  inhibition: 100%
[5]
  inhibition: 100%
[6]
  IC50: > 10 µM
